For six molecules, TGI results are on record in PubChem BioAssay (NCI).

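Each compound was tested at five concentrations against cells in 96-well plates for 48 hours. TGI marks complete inhibition of growth.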

Among the test systems are A498 renal; ACHN renal; CCRF-CEM leukemia; EKVX NSCLC; HCC-2998 colon; HCT-116 colon; HCT-15 colon; MDA-MB-231 breast; MDA-N; NCI-H226 lung; NCI-H460 lung; OVCAR-4 ovarian; OVCAR-5 ovarian; PC-3 prostate; RPMI-8226 leukemia; SF-295 CNS; SNB-75 CNS; SR leukemia; T-47D breast; UACC-62 melanoma.
Assay in all cases: DTP human tumour cell line panel, 48 h

As usually defined, the TGI is the concentration giving total growth inhibition. Lower therefore signals more potent growth arrest. For the molecule `Cc1ccc2c(c1)C(=O)C(Cc1ccccc1C(=O)O)C2` (stereo not given), the TGI in the experiment on A498 renal, with ACHN renal, in the experiment with CCRF-CEM leukemia, in the experiment with EKVX NSCLC, with HCC-2998 colon and in the experiment with HCT-116 colon was over 100 µM in each case. In addition, the concentration for total growth inhibition (TGI) in the experiment on HCT-15 colon, in the experiment on MDA-MB-231 breast, in the experiment on MDA-N, with NCI-H226 lung, with NCI-H460 lung and with OVCAR-4 ovarian was over 100 µM throughout. The TGI with OVCAR-5 ovarian, in the experiment on PC-3 prostate, with RPMI-8226 leukemia, in the experiment with SF-295 CNS, in the experiment on SNB-75 CNS and with SR leukemia was over 100 µM in each case. Moreover, the TGI with T-47D breast and in the experiment on UACC-62 melanoma was over 100 µM in each case.

Turning to `CCOC(=O)C(Cc1c2ccccc2cc2ccccc12)(NC(C)=O)C(=O)OCC`, the concentration for total growth inhibition (TGI) in the experiment with A498 renal, in the experiment on ACHN renal, with CCRF-CEM leukemia, in the experiment with EKVX NSCLC, in the experiment on HCC-2998 colon and in the experiment with HCT-116 colon was over 100 µM in each case. In addition, the concentration for total growth inhibition (TGI) in the experiment on HCT-15 colon, in the experiment with MDA-MB-231 breast, in the experiment with MDA-N, in the experiment with NCI-H226 lung, in the experiment with NCI-H460 lung and with OVCAR-4 ovarian was over 100 µM in each case. Further, the total growth inhibition concentration (TGI) in the experiment with OVCAR-5 ovarian was over 100 µM; in the experiment on PC-3 prostate, over 100 µM; in the experiment on RPMI-8226 leukemia, over 100 µM; with SF-295 CNS it was over 100 µM; in the experiment on SNB-75 CNS it was over 80.6 µM; with SR leukemia it was over 100 µM. Besides, the TGI in the experiment on T-47D breast was over 100 µM; in the experiment with UACC-62 melanoma, over 80.9 µM.

On to `Cn1c(=O)c2c(no[n+]2[O-])n(C)c1=O`, for which the TGI is 48 µM in the experiment with A498 renal; over 100 µM in the experiment with ACHN renal; over 100 µM in the experiment on CCRF-CEM leukemia; 67.9 µM in the experiment on EKVX NSCLC; over 100 µM in the experiment with HCC-2998 colon; over 100 µM in the experiment on HCT-116 colon. Also, the TGI in the experiment on HCT-15 colon was over 100 µM; in the experiment with MDA-MB-231 breast, 48.1 µM; with MDA-N, 50.7 µM; in the experiment with NCI-H226 lung it was 59.3 µM; with NCI-H460 lung, over 100 µM; with OVCAR-4 ovarian, over 100 µM. For the same molecule, the concentration for total growth inhibition (TGI) is over 100 µM with OVCAR-5 ovarian; over 100 µM in the experiment on PC-3 prostate; over 100 µM in the experiment on RPMI-8226 leukemia; over 100 µM with SF-295 CNS; 99.2 µM with SNB-75 CNS; over 100 µM in the experiment with SR leukemia. In addition, the figures for the TGI in the experiment with T-47D breast and with UACC-62 melanoma were over 100 µM and 40.5 µM, respectively.

In the case of `COc1ccc(CNc2nc3cc(C(F)(F)F)ccc3nc2C(=O)O)cc1OC`, the total growth inhibition concentration (TGI) in the experiment on A498 renal is 73.2 µM; with ACHN renal, over 100 µM; with CCRF-CEM leukemia it was 92.9 µM; in the experiment with EKVX NSCLC, over 100 µM; with HCC-2998 colon, 95.8 µM; in the experiment on HCT-116 colon, 75.4 µM. Also, the TGI with HCT-15 colon, in the experiment with MDA-MB-231 breast, in the experiment on MDA-N, in the experiment with NCI-H226 lung, in the experiment with NCI-H460 lung and in the experiment on OVCAR-4 ovarian was over 100 µM each time. Moreover, the TGI with OVCAR-5 ovarian is over 100 µM; in the experiment with PC-3 prostate it was over 100 µM; with RPMI-8226 leukemia, 94.6 µM; in the experiment with SF-295 CNS, over 100 µM; with SNB-75 CNS, over 100 µM; in the experiment on SR leukemia, 63.8 µM. Moreover, the TGI in the experiment on T-47D breast is over 100 µM; in the experiment on UACC-62 melanoma it was 45.6 µM.

As for `COC(=O)C1=NN2c3ccccc3C(=O)OCCC2(C)C1` (stereo not given), the TGI in the experiment with A498 renal, with ACHN renal, in the experiment with CCRF-CEM leukemia, in the experiment on EKVX NSCLC, in the experiment on HCC-2998 colon and with HCT-116 colon was over 100 µM each time. The total growth inhibition concentration (TGI) in the experiment with HCT-15 colon, in the experiment with MDA-MB-231 breast, in the experiment with MDA-N, with NCI-H226 lung, with NCI-H460 lung and with OVCAR-4 ovarian was over 100 µM each time. The TGI in the experiment with OVCAR-5 ovarian, in the experiment with PC-3 prostate, with RPMI-8226 leukemia, in the experiment with SF-295 CNS, with SNB-75 CNS and with SR leukemia was over 100 µM in each case. For the same molecule, the total growth inhibition concentration (TGI) in the experiment on T-47D breast and in the experiment on UACC-62 melanoma was over 100 µM each time.

Consider `O=S(=O)(N=S(c1ccc(Cl)cc1)c1ccc(Cl)cc1)c1ccccc1`, for which the TGI in the experiment on A498 renal, in the experiment on ACHN renal, in the experiment with CCRF-CEM leukemia, in the experiment with EKVX NSCLC, in the experiment with HCC-2998 colon and in the experiment with HCT-116 colon was over 100 µM throughout. In addition, the concentration for total growth inhibition (TGI) with HCT-15 colon, in the experiment with MDA-MB-231 breast, with MDA-N, in the experiment with NCI-H226 lung, in the experiment with NCI-H460 lung and with OVCAR-4 ovarian was over 100 µM each time. For the same molecule, the total growth inhibition concentration (TGI) in the experiment with OVCAR-5 ovarian, in the experiment on PC-3 prostate, in the experiment with RPMI-8226 leukemia, in the experiment on SF-295 CNS, in the experiment on SNB-75 CNS and with SR leukemia was over 100 µM throughout. Moreover, the total growth inhibition concentration (TGI) in the experiment on T-47D breast and in the experiment on UACC-62 melanoma was over 100 µM each time.
